pIC50: −log10 of the molar value. Where two headings read alike, the source gives them in different places.
What was measured:
Format in all cases: cell-based, human
[1] = test system: Kidney A-498; experiment: CellTiter Glo cell viability assay; settings: read-out: IC50
Description: 1.7*10^3 cells/well were seeded in quadruplicates in 96-well plate after plating. […] Cell growth was assessed on day 1, 3 and 5 after drug treatments using the CellTiter Glo Luminescence Cell Viability Assay (Promega) according to manufacturer's protocol. Thermo Scientific Varioskan LUX Multimode Microplate instrument was used for plate reading. Data are expressed as mean luminescence (arbitrary units) ±S.D.
Cell Viability Assays were employed to determine the concentration of Compound 1 (KYN-001) and analogues where the response is reduced by half. […] GraphPad Prism 7 software was used to fit dose response curves. Relative Luminescence Units were plotted against the log values of the doses used and the nonlinear regression model was used for data analysis.
The protocol for cell proliferation was optimized for Compound 8 (KYN-119) to enable a more accurate assessment of its low IC50 value. […]

[2] = test system: Pancreatic MIA PaCa-2; experiment: CellTiter Glo cell viability assay; settings: read-out: IC50
Description: (§1) 1.7*10^3 cells/well were seeded in quadruplicates in 96-well plate after plating. Drugs were added at 5 μM and 2-fold dilutions over 18 concentrations (0.000038146-5 […] range) to generate a dose-response curve. Cell growth was assessed on day 1, 3 and 5 after drug treatments using the CellTiter Glo Luminescence Cell Viability Assay (Promega) according to manufacturer's protocol. Thermo Scientific Varioskan LUX Multimode Microplate instrument was used for plate reading. Data are expressed as mean luminescence (arbitrary units) ±S.D.
(§2) Cell Viability Assays were employed to determine the concentration of Compound 1 (KYN-001) and analogues where the response is reduced by half. For each treatment of cancer cells, 1, 2, 5, 10 and 20 μM solutions of compounds were applied. GraphPad Prism 7 software was used to fit dose response curves. Relative Luminescence Units were plotted against the log values of the doses used and the nonlinear regression model was used for data analysis.
(§3) The protocol for cell proliferation was optimized for Compound 8 (KYN-119) to enable a more accurate assessment of its low IC50 value. In this protocol, 18 dosages (2 fold dilutions ranging from 0.000038146 to 5 μM) were applied to cells seeded in 96-well plates, and Luminescence was measured after 1, 3 and 5 days upon treatments.
Day 3 upon treatment of MIA PaCa_2 pancreatic cancer cells, 24 h after plating (11 dilutions), as assessed by CellTiter Glow Assay.

[3] = test system: Cancer cells including pancreatic, bladder, kidney, colon, breast, lung, liver and osteosarcomas; experiment: CellTiter Glo cell viability assay, panel of cancer cell lines; settings: SAR discussion based on IC50 values in Tables 1 to 5; compared with 1 [KYN-001]
Description: Compounds 1 to 15 were evaluated and their effect on cancer growth examined in cell viability assays on multiple cancer types (Tables 1 to 5). Cancer cells including pancreatic, bladder, kidney, colon, breast, lung, liver and osteosarcomas obtained from ATCC (American Type Culture Collection) were authenticated before use by Short Tandem Repeat genomic analysis (Reid Y, Storts D, Riss T and Minor L. Authentication of Human Cell Lines by STR DNA Profiling Analysis. 2013 May 1. In: Markossian S, Sittampalam G S, Grossman A, et al., editors. Assay Guidance Manual. Bethesda (MD): Eli Lilly & Company and the National Center for Advancing Translational Sciences; 2004.). Experimental protocol for each cancer cell line was verified and optimized according to literature reports before use (Tables 1 to 3).
as §1, §2, §3

[4] = test system: Bladder RT-112; experiment: CellTiter Glo cell viability assay; settings: Homo sapiens, RT-112, 72 h, Table 4: 3 Days of treatment; 18 2-fold dilutions 5-0.00003 μM; Average (1, 8) or single Exp A-D; read-out: IC50
Description: as §1, §2, §3

[5] = Homo sapiens, A498, 72 h, Table 4: 3 Days of treatment, 18 2-fold dilutions 5-0.00003 μM, Average (1, 8) or single Exp A-D
[6] = Homo sapiens, A498, Table 5A: 11 dilutions 3-0.00001 μM, single experiments Exp E-K
[7] = Table 5A: 11 dilutions 3-0.00001 μM, single experiments Exp E-K
[8] = Homo sapiens, MIA PaCa-2, 72 h, Table 4: 3 Days of treatment, 18 2-fold dilutions 5-0.00003 μM, Average (1, 8) or single Exp A-D
[9] = Homo sapiens, MIA PaCa-2, Table 5A: 11 dilutions 3-0.00001 μM, single experiments Exp E-K
[10] = Table 5A: 11 dilutions 3-0.00001 μM, single experiments Exp E-K, listed as KYN-139
[11] = Table 5A: 11 dilutions 3-0.00001 μM, single experiments Exp E-K, listed as KYN-140

pIC50 [2, 9] | Compound | pIC50 [1, 6] | Cancer cell viability inhibition, statement in words [3] | other results
6.00 to 7.00 | C/C=C/Cc1c(/C=C/c2ccc(O)c(OC)c2)cc(O)cc1OC [Compound 2, 4-((E)-but-2-en-1-yl)-3-((E)-4-hydroxy-3-methoxystyryl)-5-methoxyphenol] | 6.00 to 7.00 | biological activity comparable with 1 | pIC50 [1, 5]: 6.93; pIC50 [1, 7]: 6.88; pIC50 [2, 8]: 6.92; pIC50 [2, 7]: 6.87
 | C/C=C\Cc1c(/C=C/c2ccc(O)c(OC)c2)cc(O)cc1OC [Compound 3, 4-((Z)-but-2-en-1-yl)-3-((E)-4-hydroxy-3-methoxystyryl)-5-methoxyphenol] |  |  | pIC50 [1, 5]: 6.44; pIC50 [1, 10]: 6.26; pIC50 [2, 8]: 6.42; pIC50 [2, 10]: 6.28
 | C=CC(C)c1c(/C=C/c2ccc(O)c(OC)c2)cc(O)cc1OC (stereo not shown) [Compound 4, (E)-4-(but-3-en-2-yl)-3-(4-hydroxy-3-methoxystyryl)-5-methoxyphenol] |  |  | pIC50 [1, 5]: 6.18; pIC50 [1, 11]: 6.12; pIC50 [2, 8]: 6.12; pIC50 [2, 11]: 6.13
 | C/C=C/Cc1c(/C=C/c2ccc(O)c(OC)c2)cc(O)cc1OCC [Compound 5, 4-((E)-But-2-en-1-yl)-3-ethoxy-5-((E)-4-hydroxy-3-methoxystyryl)phenol] | 5.92 |  | pIC50 ([2]; Table 5A: 11 dilutions 3-0.00001 μM, single experiments Exp E-K, listed as KYN-153): 7.56
5.89 | C=CCc1c(/C=C/c2ccc(O)c(OC)c2)cc(O)cc1OC [Compound 6, (E)-4-allyl-3-(4-hydroxy-3-methoxystyryl)-5-methoxyphenol] | 5.96 |  | pIC50 [1, 5]: 5.80; pIC50 [4]: 6.06
 | COc1cc(/C=C/c2cc(O)cc(OC)c2Cc2ccccc2)ccc1O [Compound 7, (E)-4-benzyl-3-(4-hydroxy-3-methoxystyryl)-5-methoxyphenol] | 6.00 to 7.00 |  | pIC50 [1, 5]: 6.54; pIC50 [1, 7]: 6.70; pIC50 [4]: 6.77
< 5.52 | COc1cc(O)cc(/C=C/c2ccc(O)c(N(C)C)c2)c1CC=C(C)C [Compound 16, (E)-3-(3-(Dimethylamino)-4-hydroxystyryl)-5-methoxy-4-(3-methylbut-2-en-1-yl)phenol] | < 5.52 | inactive or weakly active | 
~6.00 | COc1cc(/C=C/c2cc(O)cc(OC)c2CC=C(C)C)cc(O)c1O [Compound 18, (E)-5-(5-Hydroxy-3-methoxy-2-(3-methylbut-2-en-1-yl)styryl)-3-methoxybenzene-1,2-diol] | ~5.52 |  | 
6.04 | COc1cc(O)cc(/C=C/c2cc(O)cc(OC)c2CC=C(C)C)c1 [Compound 19, (E)-3-(3-Hydroxy-5-methoxystyryl)-5-methoxy-4-(3-methylbut-2-en-1-yl)phenol] | < 5.52 | strongly weakened activity | 
< 5.52 | COc1cc(/C=C/c2cc(O)cc(OC)c2CC=C(C)C)ccc1C(=O)O [Compound 21, (E)-4-(5-Hydroxy-3-methoxy-2-(3-methylbut-2-en-1-yl)styryl)-2-methoxybenzoic acid] | < 5.52 |  | pIC50 [1, 7]: ~5.52
 | COc1cc(/C=C/c2cc(O)cc(OC)c2CC=C(C)C)ccc1NS(C)(=O)=O [Compound 25, (E)-N-(4-(5-hydroxy-3-methoxy-2-(3-methylbut-2-en-1-yl)styryl)-2-methoxyphenyl)methanesulfonamide] | 4.82 |  | pIC50 [2, 8]: 5.11
 | COc1cc(/C=C\c2cc(O)cc(OC)c2CC=C(C)C)ccc1NS(C)(=O)=O [Compound 26, (Z)—N-(4-(5-hydroxy-3-methoxy-2-(3-methylbut-2-en-1-yl)styryl)-2-methoxyphenyl)methanesulfonamide] |  | Total loss of the anti-proliferative effect | 
 | CCOc1cc(O)cc(/C=C/c2ccc(NC(=O)CN)c(OC)c2)c1CC=C(C)C [Compound 32, (E)-2-Amino-N-(4-(3-ethoxy-5-hydroxy-2-(3-methylbut-2-en-1-yl)styryl)-2-methoxyphenyl)acetamide] | 5.74 |  | 
6.00 to 7.00 | CCOc1cc(O)cc(/C=C/c2ccc(NCC(=O)OC)c(OC)c2)c1CC=C(C)C [Compound 34, Methyl (E)-(4-(3-ethoxy-5-hydroxy-2-(3-methylbut-2-en-1-yl)styryl)-2-methoxyphenyl)glycinate] |  |  | pIC50 [2, 7]: 6.76
< 5.52 | CCOc1cc(O)cc(/C=C/c2ccc(NC(=O)CCC(=O)O)c(OC)c2)c1CC=C(C)C [Compound 37, (E)-4-((4-(3-Ethoxy-5-hydroxy-2-(3-methylbut-2-en-1-yl)styryl)-2-methoxyphenyl)amino)-4-oxobutanoic acid] |  |  | 
< 5.52 | [H]/N=C(\N)Nc1ccc(C=Cc2cc(O)cc(OCC)c2CC=C(C)C)cc1OC [Compound 38, (E)-1-(4-(3-ethoxy-5-hydroxy-2-(3-methylbut-2-en-1-yl)styryl)-2-methoxyphenyl)guanidine] | 6.00 to 7.00 |  | pIC50 [1, 7]: ~7.00
< 5.52 | CCOc1cc(O)cc(/C=C/c2ccc(NC=O)c(O)c2)c1CC=C(C)C [Compound 40, (E)-N-(4-(3-Ethoxy-5-hydroxy-2-(3-methylbut-2-en-1-yl)styryl)-2-hydroxyphenyl)formamide] | 5.53 | very strongly weakened activity | 
< 5.52 | CCOc1cc(O)cc(/C=C/c2ccc(O)c(NC=O)c2)c1CC=C(C)C [Compound 41, (E)-N-(5-(3-Ethoxy-5-hydroxy-2-(3-methylbut-2-en-1-yl)styryl)-2-hydroxyphenyl)formamide] |  | inactive or weakly active | 
 | COc1cc(/C=C/c2cc([N+](=O)[O-])cc(OC)c2CC=C(C)C)ccc1O [Compound 42, (E)-2-Methoxy-4-(3-methoxy-2-(3-methylbut-2-en-1-yl)-5-nitrostyryl)phenol] | ~5.52 | almost complete loss of anticancer activity | 
~5.52 | COc1cc(/C=C/c2cc(N)cc(OC)c2CC=C(C)C)ccc1O [Compound 43, (E)-4-(5-Amino-3-methoxy-2-(3-methylbut-2-en-1-yl)styryl)-2-methoxyphenol] | ~5.52 | No significant enhancement of activity | 
5.94 | COc1cc(/C=C/c2cc(NC=O)cc(OC)c2CC=C(C)C)ccc1O [Compound 44, (E)-N-(3-(4-Hydroxy-3-methoxystyryl)-5-methoxy-4-(3-methylbut-2-en-1-yl)phenyl)formamide] | 5.69 | No significant enhancement of activity | 
 | COc1cc(/C=C/c2cc(O)cc(C(F)(F)F)c2CC=C(C)C)ccc1O [Compound 46, (E)-3-(4-hydroxy-3-methoxystyryl)-4-(3-methylbut-2-en-1-yl)-5-(trifluoromethyl)phenol] |  | complete loss of biological activity | 
 | CCOc1cc(O)cc(/C=C/c2ccc3[nH]c(=O)oc3c2)c1CC=C(C)C [Compound 52, (E)-6-(3-Ethoxy-5-hydroxy-2-(3-methylbut-2-en-1-yl)styryl)benzo[d]oxazol-2(3H)-one] |  | no significant activity | 
